Source: article PMC7366380, “Discovery of a Potent and Selective Covalent Inhibitor and Activity-Based Probe for the Deubiquitylating Enzyme UCHL1, with Antifibrotic Activity” (Journal of the American Chemical Society, 2020)
Values joined by “and” are separate entries in the source; they are usually repeats but may differ in a detail not shown here. Equal entries are not always repeated.

How the values were obtained:
UCHL3 = target: T1, UCHL3 (Homo sapiens, UniProt P15374); experiment: Quantitative chemical proteomic profiling of ABP 2 in HEK293 cells: UCHL3; conditions: for Log2 reporter intensity values (Log2FC, DMSO substract): UCHL3, listed as ABP 2
T1 sequence (P15374 1-230): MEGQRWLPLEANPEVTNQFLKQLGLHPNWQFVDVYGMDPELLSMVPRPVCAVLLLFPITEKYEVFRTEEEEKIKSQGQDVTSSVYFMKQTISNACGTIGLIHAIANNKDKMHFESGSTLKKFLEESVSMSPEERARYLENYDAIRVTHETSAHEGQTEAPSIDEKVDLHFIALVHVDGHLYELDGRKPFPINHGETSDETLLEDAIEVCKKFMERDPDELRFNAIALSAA

FGFR2 = FGFR2 (Homo sapiens, UniProt P21802); experiment: ABP 2 labeling in HEK293 cells, pulldown and FGFR2 immunoblotting; conditions: HEK293, any concentration up to 2 μM
PSMD14 = PSMD14 (Homo sapiens, UniProt O00487); experiment: Quantitative chemical proteomic profiling of ABP 2 in HEK293 cells: PSMD14; conditions: for Log2 reporter intensity values (Log2FC, DMSO substract): PSMD14, listed as ABP 2
[1] = target: DUBs and other proteins in HEK293 cells (Homo sapiens, UniProt Q7L5N1); experiment: Quantitative chemical proteomic profiling of ABP 2 in HEK293 cells: other DUBs and proteins across the proteome; conditions: COPS6, listed as ABP 2
[2] = target: DUBs and other proteins in HEK293 cells (Homo sapiens, UniProt Q93009); experiment: as above; conditions: USP7, listed as ABP 2
[3] = target: DUBs and other proteins in HEK293 cells (Homo sapiens, UniProt Q93008); experiment: as above; conditions: USP9X, listed as ABP 2
[4] = target: DUBs and other proteins in HEK293 cells (Homo sapiens, UniProt P51784); experiment: as above; conditions: USP11, listed as ABP 2
[5] = target: T2, DUBs and other proteins in HEK293 cells (Homo sapiens, UniProt P51665); experiment: as above; conditions: PSMD7, listed as ABP 2
T2 sequence (P51665 1-324): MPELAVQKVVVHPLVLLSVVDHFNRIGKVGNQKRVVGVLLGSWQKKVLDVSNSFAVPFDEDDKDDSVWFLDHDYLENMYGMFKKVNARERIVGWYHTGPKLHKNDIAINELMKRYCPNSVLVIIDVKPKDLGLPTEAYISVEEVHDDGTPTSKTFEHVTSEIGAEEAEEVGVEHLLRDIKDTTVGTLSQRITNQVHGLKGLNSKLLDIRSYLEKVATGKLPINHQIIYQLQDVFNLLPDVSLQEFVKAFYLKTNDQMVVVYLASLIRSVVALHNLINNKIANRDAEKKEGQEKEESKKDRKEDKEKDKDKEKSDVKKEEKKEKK

[6] = target: DUBs and other proteins in HEK293 cells (Homo sapiens, UniProt Q92905); experiment: as above; conditions: COPS5, listed as ABP 2
UCHL1 = target: T3, UCHL1 (Homo sapiens, UniProt P09936); experiment: ABP 2 labeling in HEK293 cells, AzTB ligation, in-gel fluorescence; conditions: HEK293, time course
T3 sequence (P09936 1-223): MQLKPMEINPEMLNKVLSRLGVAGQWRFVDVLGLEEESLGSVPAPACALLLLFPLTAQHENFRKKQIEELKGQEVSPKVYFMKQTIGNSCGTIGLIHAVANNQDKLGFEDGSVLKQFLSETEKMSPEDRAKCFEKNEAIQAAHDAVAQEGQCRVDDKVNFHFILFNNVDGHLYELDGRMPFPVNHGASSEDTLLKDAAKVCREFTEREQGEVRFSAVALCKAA

[7] = 200 nM, 180 min, replicates A,C

DUBs and other proteins in HEK293 cells (Homo sapiens, UniProt Q7L5N1), sequence (Q7L5N1 whole entry): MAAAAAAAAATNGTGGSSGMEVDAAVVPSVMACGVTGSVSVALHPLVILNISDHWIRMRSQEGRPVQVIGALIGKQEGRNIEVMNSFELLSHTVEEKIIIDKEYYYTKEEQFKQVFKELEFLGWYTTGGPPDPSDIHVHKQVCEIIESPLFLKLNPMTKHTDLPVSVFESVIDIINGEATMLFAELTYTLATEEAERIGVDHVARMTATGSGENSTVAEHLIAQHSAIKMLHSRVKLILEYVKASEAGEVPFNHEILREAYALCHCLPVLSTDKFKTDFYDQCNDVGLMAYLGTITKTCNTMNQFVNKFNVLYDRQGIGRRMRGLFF
DUBs and other proteins in HEK293 cells (Homo sapiens, UniProt Q92905), sequence (Q92905 whole entry): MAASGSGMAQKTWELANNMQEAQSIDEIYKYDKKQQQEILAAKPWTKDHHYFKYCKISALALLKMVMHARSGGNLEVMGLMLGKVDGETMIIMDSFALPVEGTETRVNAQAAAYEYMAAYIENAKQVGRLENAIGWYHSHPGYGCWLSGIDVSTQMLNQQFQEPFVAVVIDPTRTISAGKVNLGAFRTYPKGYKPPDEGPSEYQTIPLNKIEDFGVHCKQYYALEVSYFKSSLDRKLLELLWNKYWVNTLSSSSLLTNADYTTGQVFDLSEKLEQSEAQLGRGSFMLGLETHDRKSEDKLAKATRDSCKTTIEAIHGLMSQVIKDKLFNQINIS
DUBs and other proteins in HEK293 cells (Homo sapiens, UniProt P51784), sequence (P51784 whole entry): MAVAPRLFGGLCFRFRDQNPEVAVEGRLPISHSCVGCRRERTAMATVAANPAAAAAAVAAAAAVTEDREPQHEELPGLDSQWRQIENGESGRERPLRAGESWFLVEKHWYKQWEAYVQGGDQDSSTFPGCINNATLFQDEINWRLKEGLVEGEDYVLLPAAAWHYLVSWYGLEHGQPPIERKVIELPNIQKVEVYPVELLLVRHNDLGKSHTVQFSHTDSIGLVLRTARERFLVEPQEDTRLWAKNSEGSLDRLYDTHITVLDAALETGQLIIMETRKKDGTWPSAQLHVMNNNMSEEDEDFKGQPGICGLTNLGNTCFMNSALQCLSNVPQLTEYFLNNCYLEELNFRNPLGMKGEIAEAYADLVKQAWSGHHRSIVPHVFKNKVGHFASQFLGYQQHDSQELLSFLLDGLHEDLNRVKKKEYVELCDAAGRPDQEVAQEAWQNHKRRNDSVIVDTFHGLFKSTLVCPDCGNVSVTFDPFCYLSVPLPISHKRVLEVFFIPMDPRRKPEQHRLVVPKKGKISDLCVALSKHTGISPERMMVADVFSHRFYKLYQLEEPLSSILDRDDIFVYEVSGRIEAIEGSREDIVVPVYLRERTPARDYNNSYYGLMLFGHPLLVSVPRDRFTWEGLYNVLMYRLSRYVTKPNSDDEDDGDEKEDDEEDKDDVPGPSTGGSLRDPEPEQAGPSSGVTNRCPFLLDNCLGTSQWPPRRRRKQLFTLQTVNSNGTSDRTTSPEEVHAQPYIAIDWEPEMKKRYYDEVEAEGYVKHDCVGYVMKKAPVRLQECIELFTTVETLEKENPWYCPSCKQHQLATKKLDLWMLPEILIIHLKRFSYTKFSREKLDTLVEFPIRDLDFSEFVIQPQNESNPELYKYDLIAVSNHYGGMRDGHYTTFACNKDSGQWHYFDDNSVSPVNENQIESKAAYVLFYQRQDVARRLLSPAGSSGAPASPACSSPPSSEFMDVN
DUBs and other proteins in HEK293 cells (Homo sapiens, UniProt Q93008), sequence (Q93008 whole entry): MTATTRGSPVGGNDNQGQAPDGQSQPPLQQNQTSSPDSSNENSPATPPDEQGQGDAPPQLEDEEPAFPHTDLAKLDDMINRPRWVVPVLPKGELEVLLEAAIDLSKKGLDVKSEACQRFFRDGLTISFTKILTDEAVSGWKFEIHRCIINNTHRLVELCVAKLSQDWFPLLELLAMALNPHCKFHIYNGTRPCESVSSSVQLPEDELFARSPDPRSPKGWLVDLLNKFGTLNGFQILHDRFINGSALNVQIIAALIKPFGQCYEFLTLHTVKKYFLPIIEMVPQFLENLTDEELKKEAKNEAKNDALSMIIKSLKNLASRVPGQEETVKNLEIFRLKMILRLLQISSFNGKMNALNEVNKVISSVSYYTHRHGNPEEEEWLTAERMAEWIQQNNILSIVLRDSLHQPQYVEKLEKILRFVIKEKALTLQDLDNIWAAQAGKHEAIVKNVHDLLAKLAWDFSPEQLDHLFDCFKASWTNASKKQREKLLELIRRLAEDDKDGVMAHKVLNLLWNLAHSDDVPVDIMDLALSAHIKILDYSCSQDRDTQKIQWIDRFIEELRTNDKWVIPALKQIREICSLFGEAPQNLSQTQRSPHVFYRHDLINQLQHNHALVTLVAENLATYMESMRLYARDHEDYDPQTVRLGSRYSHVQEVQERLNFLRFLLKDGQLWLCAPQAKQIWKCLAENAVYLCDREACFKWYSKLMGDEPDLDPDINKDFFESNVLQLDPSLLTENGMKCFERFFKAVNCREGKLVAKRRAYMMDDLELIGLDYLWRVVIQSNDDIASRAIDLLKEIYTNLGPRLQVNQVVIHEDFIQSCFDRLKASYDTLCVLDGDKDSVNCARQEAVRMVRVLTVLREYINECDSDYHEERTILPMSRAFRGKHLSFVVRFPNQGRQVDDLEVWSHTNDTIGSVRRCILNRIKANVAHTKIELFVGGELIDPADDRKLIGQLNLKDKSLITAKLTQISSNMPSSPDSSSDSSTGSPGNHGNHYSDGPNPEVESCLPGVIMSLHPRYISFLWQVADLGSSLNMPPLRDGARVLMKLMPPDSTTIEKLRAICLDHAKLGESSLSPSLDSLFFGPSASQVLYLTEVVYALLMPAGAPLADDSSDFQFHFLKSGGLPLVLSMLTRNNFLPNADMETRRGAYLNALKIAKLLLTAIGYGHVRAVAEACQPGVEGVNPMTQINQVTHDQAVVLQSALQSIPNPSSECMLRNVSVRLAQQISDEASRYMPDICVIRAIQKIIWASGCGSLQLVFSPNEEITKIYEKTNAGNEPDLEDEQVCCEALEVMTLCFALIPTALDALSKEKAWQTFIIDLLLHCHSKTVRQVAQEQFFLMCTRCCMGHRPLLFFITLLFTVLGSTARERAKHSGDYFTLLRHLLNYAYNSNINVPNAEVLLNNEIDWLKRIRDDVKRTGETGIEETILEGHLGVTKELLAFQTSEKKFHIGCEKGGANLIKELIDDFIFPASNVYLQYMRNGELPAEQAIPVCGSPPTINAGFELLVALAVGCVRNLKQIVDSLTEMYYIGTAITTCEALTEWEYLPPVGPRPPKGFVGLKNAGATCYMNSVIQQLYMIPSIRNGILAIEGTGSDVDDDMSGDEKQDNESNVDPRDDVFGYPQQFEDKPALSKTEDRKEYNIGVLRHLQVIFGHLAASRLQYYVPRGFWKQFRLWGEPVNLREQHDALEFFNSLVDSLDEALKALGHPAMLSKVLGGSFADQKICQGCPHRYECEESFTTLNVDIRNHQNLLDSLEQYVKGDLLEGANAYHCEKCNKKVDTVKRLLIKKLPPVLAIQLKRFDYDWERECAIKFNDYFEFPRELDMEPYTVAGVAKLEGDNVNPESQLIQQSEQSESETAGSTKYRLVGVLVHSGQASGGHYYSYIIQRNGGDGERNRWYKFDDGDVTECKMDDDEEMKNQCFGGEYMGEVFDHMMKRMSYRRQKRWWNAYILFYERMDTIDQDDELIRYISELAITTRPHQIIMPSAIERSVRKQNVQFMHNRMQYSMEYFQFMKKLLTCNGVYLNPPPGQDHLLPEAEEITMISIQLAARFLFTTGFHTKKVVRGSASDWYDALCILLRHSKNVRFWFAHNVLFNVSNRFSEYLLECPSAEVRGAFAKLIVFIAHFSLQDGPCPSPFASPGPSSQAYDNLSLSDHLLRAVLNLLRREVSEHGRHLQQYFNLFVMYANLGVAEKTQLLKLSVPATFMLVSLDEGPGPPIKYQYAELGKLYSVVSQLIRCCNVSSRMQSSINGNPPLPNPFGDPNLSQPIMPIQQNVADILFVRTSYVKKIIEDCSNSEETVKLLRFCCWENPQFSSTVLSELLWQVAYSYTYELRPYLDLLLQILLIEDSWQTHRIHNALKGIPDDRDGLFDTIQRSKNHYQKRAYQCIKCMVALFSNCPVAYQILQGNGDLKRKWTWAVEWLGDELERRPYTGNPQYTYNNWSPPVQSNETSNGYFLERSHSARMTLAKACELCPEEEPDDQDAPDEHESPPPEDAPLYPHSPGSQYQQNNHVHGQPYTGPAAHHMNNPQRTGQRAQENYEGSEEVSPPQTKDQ
FGFR2, sequence (P21802 22-821): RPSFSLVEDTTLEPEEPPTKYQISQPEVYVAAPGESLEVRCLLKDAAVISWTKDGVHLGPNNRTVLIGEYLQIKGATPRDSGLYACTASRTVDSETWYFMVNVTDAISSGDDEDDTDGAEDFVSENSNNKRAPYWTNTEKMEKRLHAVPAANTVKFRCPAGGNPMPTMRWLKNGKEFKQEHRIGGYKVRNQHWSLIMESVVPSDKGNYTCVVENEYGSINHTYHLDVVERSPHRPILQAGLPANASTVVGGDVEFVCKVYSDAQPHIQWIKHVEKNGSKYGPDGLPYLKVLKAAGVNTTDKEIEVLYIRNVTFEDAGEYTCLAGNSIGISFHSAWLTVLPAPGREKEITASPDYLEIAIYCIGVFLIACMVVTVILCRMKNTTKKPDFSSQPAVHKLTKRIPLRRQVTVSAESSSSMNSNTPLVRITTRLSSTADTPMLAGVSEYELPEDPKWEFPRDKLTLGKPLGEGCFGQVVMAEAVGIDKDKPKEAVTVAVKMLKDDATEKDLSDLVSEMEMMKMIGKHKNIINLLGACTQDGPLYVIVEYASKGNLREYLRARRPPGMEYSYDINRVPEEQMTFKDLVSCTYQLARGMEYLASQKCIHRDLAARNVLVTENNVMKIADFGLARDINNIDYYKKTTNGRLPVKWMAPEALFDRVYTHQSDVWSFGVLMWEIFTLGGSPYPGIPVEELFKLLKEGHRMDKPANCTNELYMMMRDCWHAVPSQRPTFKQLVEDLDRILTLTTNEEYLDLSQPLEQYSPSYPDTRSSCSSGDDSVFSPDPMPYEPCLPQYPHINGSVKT

UCHL3 enrichment (chemical proteomics) (UCHL3; HEK293, higher concentrations): marginal enrichment
Log2 reporter intensity values (Log2FC, DMSO substract) (UCHL3; 2 nM, 60 min, replicates A-C): 0.05364 and -0.07312 and 0.4093
Log2 reporter intensity values (Log2FC, DMSO substract) (UCHL3; 20 nM, 10 min, replicates B,C): 0.1568 and 0.3164
Log2 reporter intensity values (Log2FC, DMSO substract) (UCHL3; 20 nM, 60 min, replicates A-C): 0.5413 and 1.009 and 0.8836
Log2 reporter intensity values (Log2FC, DMSO substract) (UCHL3; 20 nM, 180 min, replicates A-C): 1.082 and 1.256 and 0.9512
Log2 reporter intensity values (Log2FC, DMSO substract) (UCHL3; 200 nM, 10 min, replicates B,C): 0.8647 and 0.7273
Log2 reporter intensity values (Log2FC, DMSO substract) (UCHL3; 200 nM, 60 min, replicates A-C): 1.566 and 2.128 and 1.659
Log2 reporter intensity values (Log2FC, DMSO substract) (UCHL3; [7]): 2.355 and 2.225
FGFR2 enrichment by pulldown and immunoblotting (FGFR2): barely detectable
Log2 t-test Difference, PSMD14, 2 nM (PSMD14; HEK293, 2 nM vs DMSO, 1 h, enrichment, TMT, n=3): 0.06988
Log2 t-test Difference, PSMD14, 20 nM (PSMD14; HEK293, 20 nM vs DMSO, 1 h, enrichment, TMT, n=3): -0.004272
Log2 t-test Difference, PSMD14, 200 nM (PSMD14; HEK293, 200 nM vs DMSO, 1 h, enrichment, TMT, n=3): 0.1265
Log2 reporter intensity values (Log2FC, DMSO substract) (PSMD14; 2 nM, 60 min, replicates A-C): 0.2334 and 0.06155 and -0.08529
Log2 reporter intensity values (Log2FC, DMSO substract) (PSMD14; 20 nM, 10 min, replicates B,C): -0.01968 and 0.08775
Log2 reporter intensity values (Log2FC, DMSO substract) (PSMD14; 20 nM, 60 min, replicates A-C): -0.03468 and 0.06905 and -0.04719
Log2 reporter intensity values (Log2FC, DMSO substract) (PSMD14; 20 nM, 180 min, replicates A-C): 0.05966 and 0.0953 and 0.01379
Log2 reporter intensity values (Log2FC, DMSO substract) (PSMD14; 200 nM, 10 min, replicates B,C): 0.3381 and 0.09077
Log2 reporter intensity values (Log2FC, DMSO substract) (PSMD14; 200 nM, 60 min, replicates A-C): 0.2255 and 0.1628 and -0.008927
Log2 reporter intensity values (Log2FC, DMSO substract) (PSMD14; [7]): 0.02414 and 0.2255
Log2 reporter intensity values (Log2FC, DMSO substract) ([1]; 2 nM, 60 min, replicates A-C): -0.04023 and 0.308
Log2 reporter intensity values (Log2FC, DMSO substract) ([1]; 20 nM, 10 min, replicates B,C): -0.278 and 0.05496
Log2 reporter intensity values (Log2FC, DMSO substract) ([1]; 20 nM, 60 min, replicates A-C): -0.132 and -0.1593 and 0.09464
Log2 reporter intensity values (Log2FC, DMSO substract) ([1]; 20 nM, 180 min, replicates A-C): -0.02381 and 0.4095 and -0.1139
Log2 reporter intensity values (Log2FC, DMSO substract) ([1]; 200 nM, 10 min, replicates B,C): 0.1379 and -0.08033
Log2 reporter intensity values (Log2FC, DMSO substract) ([1]; 200 nM, 60 min, replicates A-C): 0.1575 and 0.03437 and 0.12
Log2 reporter intensity values (Log2FC, DMSO substract) [1, 7]: 0.2559 and 0.1548
Log2 reporter intensity values (Log2FC, DMSO substract) ([2]; 2 nM, 60 min, replicates A-C): 0.06357 and 0.017 and -0.3747
Log2 reporter intensity values (Log2FC, DMSO substract) ([2]; 20 nM, 10 min, replicates B,C): -0.07969 and -0.2354
Log2 reporter intensity values (Log2FC, DMSO substract) ([2]; 20 nM, 60 min, replicates A-C): 0.02327 and -0.09058 and -0.2812
Log2 reporter intensity values (Log2FC, DMSO substract) ([2]; 20 nM, 180 min, replicates A-C): -0.1814 and -0.1595 and -0.1999
Log2 reporter intensity values (Log2FC, DMSO substract) ([2]; 200 nM, 10 min, replicates B,C): 0.1137
Log2 reporter intensity values (Log2FC, DMSO substract) ([2]; 200 nM, 60 min, replicates A-C): -0.04347 and 0.1524 and 0.1409
Log2 reporter intensity values (Log2FC, DMSO substract) [2, 7]: -0.01106 and 0.3029
Log2 reporter intensity values (Log2FC, DMSO substract) ([3]; 2 nM, 60 min, replicates A-C): 0.06074 and 0.05768 and -0.1222
Log2 reporter intensity values (Log2FC, DMSO substract) ([3]; 20 nM, 10 min, replicates B,C): 0.0266 and 0.08583
Log2 reporter intensity values (Log2FC, DMSO substract) ([3]; 20 nM, 60 min, replicates A-C): -0.07107 and -0.1083 and 0.02034
Log2 reporter intensity values (Log2FC, DMSO substract) ([3]; 20 nM, 180 min, replicates A-C): -0.3167 and 0.0151 and 0.03374
Log2 reporter intensity values (Log2FC, DMSO substract) ([3]; 200 nM, 10 min, replicates B,C): 0.03305 and -0.1026
Log2 reporter intensity values (Log2FC, DMSO substract) ([3]; 200 nM, 60 min, replicates A-C): 0.09885 and 0.2045 and -0.1344
Log2 reporter intensity values (Log2FC, DMSO substract) [3, 7]: 0.109 and 0.1534
Log2 reporter intensity values (Log2FC, DMSO substract) ([4]; 2 nM, 60 min, replicates A-C): 0.1233 and -0.3054 and -0.2167
Log2 reporter intensity values (Log2FC, DMSO substract) ([4]; 20 nM, 10 min, replicates B,C): -0.09443 and -0.2626
Log2 reporter intensity values (Log2FC, DMSO substract) ([4]; 20 nM, 60 min, replicates A-C): -0.4096 and 0.07333 and 0.009688
Log2 reporter intensity values (Log2FC, DMSO substract) ([4]; 20 nM, 180 min, replicates A-C): -0.127 and -0.3984 and -0.1331
Log2 reporter intensity values (Log2FC, DMSO substract) ([4]; 200 nM, 10 min, replicates B,C): 0.008113 and -0.08322
Log2 reporter intensity values (Log2FC, DMSO substract) ([4]; 200 nM, 60 min, replicates A-C): 0.1655 and -0.03212 and -0.2868
Log2 reporter intensity values (Log2FC, DMSO substract) [4, 7]: 0.2311 and 0.03651
Log2 reporter intensity values (Log2FC, DMSO substract) ([5]; 2 nM, 60 min, replicates A-C): -0.04989 and -0.02897 and -0.2015
Log2 reporter intensity values (Log2FC, DMSO substract) ([5]; 20 nM, 10 min, replicates B,C): -0.09409 and -0.09867
Log2 reporter intensity values (Log2FC, DMSO substract) ([5]; 20 nM, 60 min, replicates A-C): 0.07866 and 0.1721 and 0.02873
Log2 reporter intensity values (Log2FC, DMSO substract) ([5]; 20 nM, 180 min, replicates A-C): 0.04655 and 0.01609 and -0.03959
Log2 reporter intensity values (Log2FC, DMSO substract) ([5]; 200 nM, 10 min, replicates B,C): 0.1092 and 0.06216
Log2 reporter intensity values (Log2FC, DMSO substract) ([5]; 200 nM, 60 min, replicates A-C): -0.1489 and -0.1748
Log2 reporter intensity values (Log2FC, DMSO substract) [5, 7]: -0.06266 and -0.01801
Log2 reporter intensity values (Log2FC, DMSO substract) ([6]; 2 nM, 60 min, replicates A-C): -0.07206 and -0.06602 and 0.07642
Log2 reporter intensity values (Log2FC, DMSO substract) ([6]; 20 nM, 10 min, replicates B,C): -0.04991 and -0.07182
Log2 reporter intensity values (Log2FC, DMSO substract) ([6]; 20 nM, 60 min, replicates A-C): -0.1096 and -0.2324 and -0.02748
Log2 reporter intensity values (Log2FC, DMSO substract) ([6]; 20 nM, 180 min, replicates A-C): -0.1203 and -0.07618 and -0.1432
Log2 reporter intensity values (Log2FC, DMSO substract) ([6]; 200 nM, 10 min, replicates B,C): -0.09582 and 0.125
Log2 reporter intensity values (Log2FC, DMSO substract) ([6]; 200 nM, 60 min, replicates A-C): 0.01523 and 0.2396 and 0.003556
Log2 reporter intensity values (Log2FC, DMSO substract) [6, 7]: 0.05752 and -0.04833
time to maximal labeling (UCHL1): ≤ 60 min
Compound: C#Cc1cnc2[nH]cc(-c3cccc4c3CCN4C(=O)[C@@H]3CCCN3C#N)c2c1 [Compound 2]
